Where a SMILES comes first, the peptide text is derived from it. [ ]: non-standard residue; d: D form. Hyp = O=C(O)[C@@H]1C[C@@H](O)CN1
Test: 8-day repeat-dose study, tolerability (blood chemistry, hematology, adverse events) in tumor-bearing dogs
Assay type: in vivo, dog
Details: for ALP / ALT / AST / Albumin / BUN / Bicarbonate / Bilirubin Conj. / Calcium / Chloride / Cholesterol / Creatine Kinase / GGT / Globulin / Glucose / HCT / HGB / MCH / MCV / Phosphorous / Platelets / Potassium / RBC / Sodium / Total Bilirubin / Total Protein / WBC: Post: 30 min after last injection on day 8, 10 mg s.c. once daily for 8 days
Source text: Previous studies utilizing repeat dosing in mice and rats established safe starting doses for studies using dogs. Female dogs with one or more spontaneously occurring mammary gland tumors greater than approximately 2 cm in maximum diameter, presenting to the Cancer Institute at the Schwarzman Animal Medical Center in New York City, were screened for inclusion in the study. […] All dogs underwent complete clinical staging, consisting of a complete blood count with cell differential, clinical chemistry, and urinalysis. Dogs were administered AFPep 10 mg s.c. once daily for 8 consecutive days. Tumors were biopsied prior to the administration of AFPep and were surgically removed on day 8 after the last injection of AFPep. Blood levels of AFPep were measured before and 30 minutes following its administration on the first day and eighth day of treatment with AFPep. Histopathology was obtained on all mammary gland tumors. Tolerability was assessed using the Veterinary Cooperative Oncology Group Common Terminology Criteria for Adverse Events. Blood chemistry and hematology analyses were performed at IDEXX Laboratories Inc. (Westbrook, ME, USA), using the Sysmex XT and Beckman AU 5800 systems. This study was approved by the Schwarzman Animal Medical Center IACUC and informed consent was obtained in writing from all owners.

For `CC(C)[C@@H]1NC(=O)[C@@H]2C[C@@H](O)CN2C(=O)[C@H]([C@@H](C)O)NC(=O)[C@H](CCCCN)NC(=O)[C@H](CCC(=O)O)NC(=O)[C@H](CC(N)=O)NC(=O)CNC(=O)[C@@H]2C[C@@H](O)CN2C(=O)[C@H](CC(N)=O)NC1=O` [AFPep] (cyclo(EKT[Hyp]VN[Hyp]GN)), the “AFPep-related adverse events (VCOG-CTCAE)” value (10 mg s.c. once a day for 8 days, 6 dogs with mammary cancer) was “grade-1 injection site reactions in three out of six dogs”, the “complete blood counts with cell differential, clinical chemistry, and urinalysis” value (30 minutes before first exposure vs 30 minutes after the 8-day administration, 10 mg s.c. once daily, 6 dogs) was “unchanged” and the ALP (Dog 1) was 261 U/L. The ALT (Dog 1) was 35 U/L, the AST (Dog 1) was 14 U/L and the Albumin (Dog 1) was 3 g/dL. For the same compound, the BUN (Dog 1) was 27 mg/dL, the Bicarbonate (Dog 1) was 21 mmol/L and the Bilirubin Conj. (Dog 1) was 0.1 mg/dL. It also gave a Calcium (Dog 1) of 10 mg/dL, a Chloride (Dog 1) of 111 mmol/L and a Cholesterol (Dog 1) of 277 mg/dL. For the same compound, the Creatine Kinase (Dog 1) was 120 U/L, the GGT (Dog 1) was 4 U/L and the Globulin (Dog 1) was 3 g/dL. The Glucose (Dog 1) was 107 mg/dL, the HCT (Dog 1) was 39% and the HGB (Dog 1) was 13 g/dL. It also gave an MCH (Dog 1) of 24 pg, an MCV (Dog 1) of 68 fL and a Phosphorous (Dog 1) of 4 mg/dL. For the same compound, the Platelets (Dog 1) was 438 10^3/µL, the Potassium (Dog 1) was 4 mmol/L and the RBC (Dog 1) was 6 10^6/µL. The Sodium (Dog 1) was 145 mmol/L, the Total Bilirubin (Dog 1) was 0.1 mg/dL and the Total Protein (Dog 1) was 6 g/dL. For the same compound, the WBC (Dog 1) was 18 10^3/µL, the ALP (Dog 2) was 115 U/L and the ALT (Dog 2) was 14 U/L. The AST (Dog 2) was 20 U/L, the Albumin (Dog 2) was 4 g/dL and the BUN (Dog 2) was 14 mg/dL. It also gave a Bicarbonate (Dog 2) of 23 mmol/L, a Bilirubin Conj. (Dog 2) of 0.1 mg/dL and a Calcium (Dog 2) of 11 mg/dL. For the same compound, the Chloride (Dog 2) was 108 mmol/L, the Creatine Kinase (Dog 2) was 225 U/L and the GGT (Dog 2) was 6 U/L. It also gave a Globulin (Dog 2) of 4 g/dL, a Glucose (Dog 2) of 178 mg/dL and an HCT (Dog 2) of 46%. It also gave an HGB (Dog 2) of 17 g/dL, an MCH (Dog 2) of 23 pg and an MCV (Dog 2) of 65 fL. For the same compound, the Phosphorous (Dog 2) was 3 mg/dL, the Platelets (Dog 2) was 700 10^3/µL and the Potassium (Dog 2) was 5 mmol/L. For the same compound, the RBC (Dog 2) was 7 10^6/µL, the Sodium (Dog 2) was 146 mmol/L and the Total Bilirubin (Dog 2) was 0.1 mg/dL. The Total Protein (Dog 2) was 8 g/dL, the WBC (Dog 2) was 7 10^3/µL and the ALP (Dog 3) was 178 U/L. The ALT (Dog 3) was 39 U/L, the AST (Dog 3) was 15 U/L and the Albumin (Dog 3) was 4 g/dL. It also gave a BUN (Dog 3) of 14 mg/dL, a Bicarbonate (Dog 3) of 23 mmol/L and a Bilirubin Conj. (Dog 3) of 0.1 mg/dL. It also gave a Calcium (Dog 3) of 9 mg/dL, a Chloride (Dog 3) of 108 mmol/L and a Cholesterol (Dog 3) of 273 mg/dL. It also gave a Creatine Kinase (Dog 3) of 115 U/L, a GGT (Dog 3) of 4 U/L and a Globulin (Dog 3) of 3 g/dL. The Glucose (Dog 3) was 107 mg/dL, the HCT (Dog 3) was 46% and the HGB (Dog 3) was 17 g/dL. For the same compound, the MCH (Dog 3) was 23 pg, the MCV (Dog 3) was 64 fL and the Phosphorous (Dog 3) was 4 mg/dL. The Platelets (Dog 3) was 558 10^3/µL, the Potassium (Dog 3) was 5 mmol/L and the RBC (Dog 3) was 7 10^6/µL. It also gave a Sodium (Dog 3) of 145 mmol/L, a Total Bilirubin (Dog 3) of 0.1 mg/dL and a Total Protein (Dog 3) of 7 g/dL. For the same compound, the WBC (Dog 3) was 6 10^3/µL, the ALP (Dog 4) was 148 U/L and the ALT (Dog 4) was 60 U/L. The AST (Dog 4) was 23 U/L, the Albumin (Dog 4) was 3 g/dL and the BUN (Dog 4) was 24 mg/dL. For the same compound, the Bicarbonate (Dog 4) was 17 mmol/L, the Bilirubin Conj. (Dog 4) was 0.1 mg/dL and the Calcium (Dog 4) was 10 mg/dL. It also gave a Chloride (Dog 4) of 114 mmol/L, a Cholesterol (Dog 4) of 451 mg/dL and a Creatine Kinase (Dog 4) of 169 U/L. The GGT (Dog 4) was 6 U/L, the Globulin (Dog 4) was 4 g/dL and the Glucose (Dog 4) was 92 mg/dL. It also gave an HCT (Dog 4) of 51%, an HGB (Dog 4) of 18 g/dL and an MCH (Dog 4) of 23 pg. For the same compound, the MCV (Dog 4) was 62 fL, the Phosphorous (Dog 4) was 3 mg/dL and the Platelets (Dog 4) was 485 10^3/µL. The Potassium (Dog 4) was 4.4 mmol/L, the RBC (Dog 4) was 8 10^6/µL and the Sodium (Dog 4) was 147 mmol/L. The Total Bilirubin (Dog 4) was 0.1 mg/dL, the Total Protein (Dog 4) was 6 g/dL and the WBC (Dog 4) was 13 10^3/µL. For the same compound, the ALP (Dog 5) was 15 U/L, the ALT (Dog 5) was 29 U/L and the AST (Dog 5) was 26 U/L. The Albumin (Dog 5) was 4 g/dL, the BUN (Dog 5) was 15 mg/dL and the Bicarbonate (Dog 5) was 21 mmol/L. For the same compound, the Bilirubin Conj. (Dog 5) was 0.1 mg/dL, the Calcium (Dog 5) was 10 mg/dL and the Chloride (Dog 5) was 110 mmol/L. The Cholesterol (Dog 5) was 373 mg/dL, the Creatine Kinase (Dog 5) was 138 U/L and the GGT (Dog 5) was 18 U/L. It also gave a Globulin (Dog 5) of 3 g/dL, a Glucose (Dog 5) of 88 mg/dL and an HCT (Dog 5) of 48%. It also gave an HGB (Dog 5) of 18 g/dL, an MCH (Dog 5) of 25 pg and an MCV (Dog 5) of 67 fL. For the same compound, the Phosphorous (Dog 5) was 3 mg/dL, the Platelets (Dog 5) was 462 10^3/µL and the Potassium (Dog 5) was 5 mmol/L. For the same compound, the RBC (Dog 5) was 7 10^6/µL, the Sodium (Dog 5) was 143 mmol/L and the Total Bilirubin (Dog 5) was 0.1 mg/dL. The Total Protein (Dog 5) was 7 g/dL, the WBC (Dog 5) was 7 10^3/µL and the ALP (Dog 6) was 19 U/L. For the same compound, the ALT (Dog 6) was 41 U/L, the AST (Dog 6) was 18 U/L and the Albumin (Dog 6) was 3 g/dL. The BUN (Dog 6) was 30 mg/dL, the Bicarbonate (Dog 6) was 21 mmol/L and the Bilirubin Conj. (Dog 6) was 0.1 mg/dL. For the same compound, the Calcium (Dog 6) was 10 mg/dL, the Chloride (Dog 6) was 114 mmol/L and the Cholesterol (Dog 6) was 198 mg/dL. The Creatine Kinase (Dog 6) was 80 U/L, the GGT (Dog 6) was 5 U/L and the Globulin (Dog 6) was 3 g/dL. It also gave a Glucose (Dog 6) of 81 mg/dL, an HCT (Dog 6) of 43% and an HGB (Dog 6) of 15 g/dL. It also gave an MCH (Dog 6) of 25 pg, an MCV (Dog 6) of 74 fL and a Phosphorous (Dog 6) of 6 mg/dL. For the same compound, the Platelets (Dog 6) was 519 10^3/µL, the Potassium (Dog 6) was 4 mmol/L and the RBC (Dog 6) was 6 10^6/µL. The Sodium (Dog 6) was 143 mmol/L, the Total Bilirubin (Dog 6) was 0.1 mg/dL and the Total Protein (Dog 6) was 6 g/dL. The WBC (Dog 6) was 13 10^3/µL.
